According to ChEMBL document CHEMBL1201862, “PubChem BioAssay data set” (2004):
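Assay format: 96-well plates, 48-hour exposure. The concentration for 50% growth inhibition is given as GI50.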 Active and inactive are the calls of the source. Rule as the data show it: active = GI50 up to about 1.1 µM and inactive = higher.

Legend:
Assay in all cases: NCI tumour cell line growth inhibition, 48 h
NCI-H522 = test system: NCI-H522
MDA-MB-231 = test system: MDA-MB-231
UACC-62 = test system: UACC-62
A498 = test system: A498
OVCAR-8 = test system: OVCAR-8
OVCAR-4 = test system: OVCAR-4
MDA-N = test system: MDA-N
LOX IMVI = test system: LOX IMVI
Hs-578T = test system: Hs-578T
NCI-H460 = test system: NCI-H460
MOLT-4 = test system: MOLT-4
COLO 205 = test system: COLO 205
TK-10 = test system: TK-10
OVCAR-3 = test system: OVCAR-3
NCI-H23 = test system: NCI-H23
T47D = test system: T47D

SMILES | GI50 (NCI-H522) | GI50 (MDA-MB-231) | GI50 (UACC-62) | GI50 (A498) | GI50 (OVCAR-8) | GI50 (OVCAR-4) | GI50 (MDA-N) | GI50 (LOX IMVI) | GI50 (Hs-578T) | GI50 (NCI-H460) | GI50 (MOLT-4) | GI50 (COLO 205) | GI50 (TK-10) | GI50 (OVCAR-3) | GI50 (NCI-H23) | GI50 (T47D)
CC(C)Oc1c(O)c2c3c(oc(=O)n3C=CC2c2ccccc2F)c1OC(C)C (stereo not drawn) | 33.8 µM (inactive) | 27.7 µM (inactive) | 21.1 µM (inactive) | 38.6 µM (inactive) | 41.8 µM (inactive) | 46 µM (inactive) | 30.9 µM (inactive) | 17.5 µM (inactive) | 75.7 µM (inactive) | 25 µM (inactive) | 18.7 µM (inactive) | 18.7 µM (inactive) | 40.6 µM (inactive) | 44.1 µM (inactive) | 30.5 µM (inactive) | 
CCn1nc(C)c2c1C(=O)NCC(=O)N2 | > 100 µM (inactive) |  | > 100 µM (inactive) | > 100 µM (inactive) | > 100 µM (inactive) | > 100 µM (inactive) | > 100 µM (inactive) |  | > 100 µM (inactive) | > 100 µM (inactive) |  | > 100 µM (inactive) | > 100 µM (inactive) | > 100 µM (inactive) | > 100 µM (inactive) | 
CC1C=CN(N(C)C)C2=C1C(=O)c1cnccc1C2=O (stereo not drawn) | 0.17 µM (active) |  | 0.167 µM (active) | 1.29 µM (inactive) | 0.883 µM (active) | 0.662 µM (active) | 0.133 µM (active) | 0.129 µM (active) | 0.693 µM (active) | 0.148 µM (active) | 1.76 µM (inactive) | 1.12 µM (inactive) | 0.513 µM (active) | 0.792 µM (active) | 0.261 µM (active) | 1.83 µM (inactive)
COc1ccc2c(c1)CC[C@@H]1[C@@H]2CC[C@]2(C)C(=O)/C(=C/c3ccc(O)c(OC)c3)C[C@@H]12 |  | 37.2 µM (inactive) | 68.5 µM (inactive) | > 100 µM (inactive) | 91.8 µM (inactive) | 55.8 µM (inactive) | 57.1 µM (inactive) | 36.9 µM (inactive) |  | 39.4 µM (inactive) | 28.2 µM (inactive) | > 100 µM (inactive) | 43.1 µM (inactive) | > 100 µM (inactive) | 77.1 µM (inactive) | 96.6 µM (inactive)
O=C(/C=C/c1ccccc1O)/C=C/c1ccccc1O |  | 2.48 µM (inactive) | 1.67 µM (inactive) | 1.82 µM (inactive) | 2.26 µM (inactive) | 2.61 µM (inactive) | 1.56 µM (inactive) | 0.252 µM (active) | 2.7 µM (inactive) | 1.35 µM (inactive) | 1.26 µM (inactive) | 1.73 µM (inactive) | 1.21 µM (inactive) | 0.352 µM (active) | 1.53 µM (inactive) | 
COC(=O)CNCC1OC2OC(C)(C)OC2C1N=[N+]=[N-] (stereo not drawn) |  |  | > 100 µM (inactive) | > 100 µM (inactive) | > 100 µM (inactive) | > 100 µM (inactive) | > 100 µM (inactive) | > 100 µM (inactive) | > 100 µM (inactive) | > 100 µM (inactive) | > 100 µM (inactive) | > 10 µM (inactive) | > 100 µM (inactive) | > 100 µM (inactive) |  | > 100 µM (inactive)
Cc1ccccc1CN1CC2=C(CCN(Cc3ccccc3)C2=O)N2CCN=C12 | 3.73 µM (inactive) | 4.45 µM (inactive) | 11.1 µM (inactive) | 13.1 µM (inactive) | 4.76 µM (inactive) | 3.27 µM (inactive) |  | 3.49 µM (inactive) | 14.4 µM (inactive) | 4.24 µM (inactive) | 9.66 µM (inactive) | 1.86 µM (inactive) | 7.35 µM (inactive) | 4.48 µM (inactive) | 4.62 µM (inactive) | 4.8 µM (inactive)
O=C(OCCN=C1c2ccccc2CCc2ccccc21)c1ccccc1 |  | > 100 µM (inactive) | > 100 µM (inactive) |  | > 100 µM (inactive) | > 100 µM (inactive) | > 100 µM (inactive) | > 100 µM (inactive) | > 100 µM (inactive) | > 100 µM (inactive) | 15.2 µM (inactive) | > 100 µM (inactive) | > 100 µM (inactive) | > 100 µM (inactive) | > 100 µM (inactive) | > 100 µM (inactive)
CSc1nncc2[nH]c(C)nc12 | > 100 µM (inactive) | > 100 µM (inactive) | > 100 µM (inactive) | > 100 µM (inactive) | > 100 µM (inactive) | > 100 µM (inactive) | > 100 µM (inactive) | > 100 µM (inactive) |  |  | > 100 µM (inactive) | > 100 µM (inactive) | > 100 µM (inactive) | > 100 µM (inactive) | > 100 µM (inactive) | > 100 µM (inactive)
CC1=C(C#N)c2nc3ccccc3n2C(=O)C1(C)CCO (stereo not drawn) | > 100 µM (inactive) | > 100 µM (inactive) | > 100 µM (inactive) | > 100 µM (inactive) | > 100 µM (inactive) | > 100 µM (inactive) | > 100 µM (inactive) | > 100 µM (inactive) | > 100 µM (inactive) | > 100 µM (inactive) |  | > 100 µM (inactive) | > 100 µM (inactive) | > 100 µM (inactive) | > 100 µM (inactive) | 
N=C1NC(c2ccc(Cl)cc2)=CC(c2cccc(Cl)c2)S1 (stereo not drawn) | 20.1 µM (inactive) |  | 18.8 µM (inactive) |  | 38.6 µM (inactive) | 20.3 µM (inactive) | 21.2 µM (inactive) | 33.7 µM (inactive) | 26.5 µM (inactive) | 26.4 µM (inactive) | 37.4 µM (inactive) | 16.4 µM (inactive) | 22.4 µM (inactive) | 41.7 µM (inactive) | 34.8 µM (inactive) | 25.4 µM (inactive)
CS/C1=C(\c2ccc(C)cc2)N(c2ccccc2)C(=O)C(=O)N(c2ccccc2)/C(c2ccc(C)cc2)=C(/SC)SS1 | > 100 µM (inactive) | > 100 µM (inactive) | > 100 µM (inactive) | 50.5 µM (inactive) | > 100 µM (inactive) | > 100 µM (inactive) | > 100 µM (inactive) | > 100 µM (inactive) |  | > 100 µM (inactive) | > 100 µM (inactive) | > 100 µM (inactive) | > 100 µM (inactive) | > 100 µM (inactive) | > 100 µM (inactive) | > 100 µM (inactive)
CC[C@@]12CCC(=S)N(CCSc3ccccc3)[C@@H]1c1c(n(S(=O)(=O)c3ccc(OC)cc3)c3ccccc13)CC2 | > 100 µM (inactive) | > 100 µM (inactive) | > 100 µM (inactive) | > 100 µM (inactive) | > 100 µM (inactive) |  |  | > 100 µM (inactive) | > 100 µM (inactive) | > 100 µM (inactive) | > 100 µM (inactive) | > 100 µM (inactive) | 52 µM (inactive) | > 100 µM (inactive) | > 100 µM (inactive) | > 100 µM (inactive)
CN1CCCOC(c2ccc([N+](=O)[O-])cc2)O1 (stereo not drawn) | > 100 µM (inactive) | > 100 µM (inactive) | > 100 µM (inactive) | > 100 µM (inactive) | > 100 µM (inactive) | > 100 µM (inactive) | > 100 µM (inactive) | > 100 µM (inactive) |  | > 100 µM (inactive) | > 100 µM (inactive) | > 100 µM (inactive) | > 100 µM (inactive) | > 100 µM (inactive) | > 100 µM (inactive) | > 100 µM (inactive)
